Consider 26 compounds from US12275745B2, “Therapeutic compounds and methods of use” (Genentech, Inc., priority 2021, dated 2025).

One experiment addresses TEAD1 (Homo sapiens, UniProt P28347). The experiment is described as follows: TR-FRET (Lipid HTRF) TEAD lipid pocket probe displacement assay, TEAD1. It is filed as binding. To be noted: His-tagged TEAD1, biotinylated lipid pocket probe, 4 hours.
For a further experiment, the target named is TEAD3 (Homo sapiens, UniProt Q99594). The experiment is described as follows: TR-FRET (Lipid HTRF) TEAD lipid pocket probe displacement assay, TEAD3. It is filed as binding. To be noted: His-tagged TEAD3, biotinylated lipid pocket probe, 4 hours. On the technique in general: Time-resolved FRET reads energy transfer from a long-lived donor to a nearby acceptor.

The next experiment has as its target TEAD4 (Homo sapiens, UniProt Q15561). The experiment is described as follows: TR-FRET (Lipid HTRF) TEAD lipid pocket probe displacement assay, TEAD4. To be noted: His-tagged TEAD4, biotinylated lipid pocket probe, 4 hours. The class given is binding.
Another experiment deals with TEAD2 (Homo sapiens, UniProt Q15562). The experiment is described as follows: biochemical.
Sequence of TEAD2 (Q15562 whole entry, species assumed): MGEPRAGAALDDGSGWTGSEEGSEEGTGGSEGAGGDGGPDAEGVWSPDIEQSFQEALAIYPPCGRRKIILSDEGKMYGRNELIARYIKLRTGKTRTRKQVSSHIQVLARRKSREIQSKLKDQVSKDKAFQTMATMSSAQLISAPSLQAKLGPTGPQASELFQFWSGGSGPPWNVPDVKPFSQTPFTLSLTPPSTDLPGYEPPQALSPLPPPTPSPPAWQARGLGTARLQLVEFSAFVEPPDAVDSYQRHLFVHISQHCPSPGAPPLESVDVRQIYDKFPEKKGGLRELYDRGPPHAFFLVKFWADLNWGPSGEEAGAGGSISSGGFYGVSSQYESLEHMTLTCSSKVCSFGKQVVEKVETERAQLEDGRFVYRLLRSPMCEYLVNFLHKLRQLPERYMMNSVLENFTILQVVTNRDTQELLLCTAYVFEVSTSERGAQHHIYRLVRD

Sequence of TEAD4 (Q15561 whole entry, species assumed): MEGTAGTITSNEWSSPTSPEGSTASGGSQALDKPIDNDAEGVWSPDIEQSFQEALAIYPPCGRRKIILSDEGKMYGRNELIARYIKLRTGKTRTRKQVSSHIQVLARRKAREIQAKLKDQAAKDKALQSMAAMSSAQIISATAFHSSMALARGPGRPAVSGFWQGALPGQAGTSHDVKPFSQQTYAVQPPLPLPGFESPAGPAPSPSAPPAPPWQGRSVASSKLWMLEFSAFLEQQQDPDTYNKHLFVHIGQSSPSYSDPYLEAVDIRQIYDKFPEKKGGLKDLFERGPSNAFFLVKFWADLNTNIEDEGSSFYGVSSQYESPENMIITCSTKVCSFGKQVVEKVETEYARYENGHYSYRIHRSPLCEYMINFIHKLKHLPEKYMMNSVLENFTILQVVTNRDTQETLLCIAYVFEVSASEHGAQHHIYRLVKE
Sequence of TEAD1 (P28347 whole entry, species assumed): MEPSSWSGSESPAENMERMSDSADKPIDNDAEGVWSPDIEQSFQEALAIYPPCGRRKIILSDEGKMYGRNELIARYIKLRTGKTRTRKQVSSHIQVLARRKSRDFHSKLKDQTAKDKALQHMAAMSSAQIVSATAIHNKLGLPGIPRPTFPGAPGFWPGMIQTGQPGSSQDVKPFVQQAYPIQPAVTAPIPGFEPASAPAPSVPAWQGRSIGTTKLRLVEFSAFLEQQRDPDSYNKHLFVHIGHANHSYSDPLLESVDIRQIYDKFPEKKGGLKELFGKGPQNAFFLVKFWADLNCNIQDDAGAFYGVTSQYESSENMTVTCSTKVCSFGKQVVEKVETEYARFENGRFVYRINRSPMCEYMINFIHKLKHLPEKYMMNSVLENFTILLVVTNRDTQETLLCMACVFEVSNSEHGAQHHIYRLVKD
Sequence of TEAD3 (Q99594 whole entry, species assumed): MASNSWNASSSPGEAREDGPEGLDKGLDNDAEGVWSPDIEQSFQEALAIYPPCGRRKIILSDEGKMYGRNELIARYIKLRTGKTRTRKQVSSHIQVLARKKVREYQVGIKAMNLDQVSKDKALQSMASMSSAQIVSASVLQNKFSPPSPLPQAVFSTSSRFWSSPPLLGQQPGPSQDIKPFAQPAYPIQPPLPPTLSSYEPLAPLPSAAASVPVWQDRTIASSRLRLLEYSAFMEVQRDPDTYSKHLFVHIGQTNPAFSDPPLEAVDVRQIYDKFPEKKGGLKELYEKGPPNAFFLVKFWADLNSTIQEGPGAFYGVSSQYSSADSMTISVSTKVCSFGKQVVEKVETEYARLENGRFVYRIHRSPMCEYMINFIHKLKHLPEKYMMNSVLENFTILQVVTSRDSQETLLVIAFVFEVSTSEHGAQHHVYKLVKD
Procedure for TEAD1: (§1) His-tagged TEAD proteins are pre-incubated with TEAD project compounds for 30 minutes or 4 hours at room temperature. Biotinylated lipid pocket probes are then added to the TEAD/Compound mixture and incubated for 60 minutes at room temperature. The lipid pocket probe competes with the test compound for the TEAD lipid pocket until equilibrium is reached. After 60 minutes, Europium labelled anti-His (Perkin Elmer #AD0110) and XL665 labelled streptavidin (CIS Bio 610SAXAC) are added to the TEAD/test compound/lipid pocket mixture and incubated for 30 minutes or 4 hours. TR-FRET values are then measured using an EnVision multi-label plate reader (Perkin Elmer Cat #2104-001 0A.) If the lipid pocket probe binds to TEAD as expected, a TR-FRET signal results from the proximity of anti-His Eu and XL665. If a TEAD lipid pocket binder such as binds and displaces the lipid pocket probe, the disruption of the TEAD:probe interaction results in a decrease in TR-FRET signal. The potency of compounds as TEAD lipid pocket binders is determined by IC50 value generated using a non-linear 4 parameter curve fit.
Procedure for TEAD3: as §1
Procedure for TEAD4: as §1

By IC50 is commonly meant the midpoint of a concentration-inhibition curve. Low readings indicate higher potency, high ones lower potency. Consider `C=CC(=O)NCc1cc(-c2ccc(OC(F)(F)F)cc2)c2ncccc2c1CO` [Compound 50, N-[[5-(hydroxymethyl)-8-[4-(trifluoromethoxy)phenyl]-6-quinolyl]methyl]prop-2-enamide], for which the 50% inhibitory concentration (IC50) at TEAD1 is 12 nM; at TEAD3, 37 nM; at TEAD4 it was 34 nM; against TEAD2, 11 nM.

For the compound `C=CC(=O)NCc1nc(-c2ccc(OC(F)(F)F)cc2)c2ncn(C)c2n1` [Compound 69, N-[[9-methyl-6-[4-(trifluoromethoxy)phenyl]purin-2-yl]methyl]prop-2-enamide], the 50% inhibitory concentration (IC50) came out at 40 nM at TEAD1, 97 nM on TEAD3, 7.5 nM at TEAD4 and 100 nM against TEAD2.

On to `C=CC(=O)NCc1cc(-c2ccc(OC(F)(F)F)cc2)c2ncn(C)c2c1Cc1cn[nH]c1` [Compound 34, N-[[3-methyl-4-(1H-pyrazol-4-ylmethyl)-7-[4-(trifluoromethoxy)phenyl]benzimidazol-5-yl]methyl]prop-2-enamide], for which the 50% inhibitory concentration (IC50) on TEAD1 came out at 190 nM; on TEAD3 it was 3600 nM; at TEAD4, 62 nM; against TEAD2, 59 nM.

In the case of `C=CC(=O)NCc1nc(-c2ccc(OC(F)(F)F)cc2)c2ccccc2n1` [Compound 7, N-((4-(4-(trifluoromethoxy)phenyl)quinazolin-2-yl)methyl)acrylamide], the IC50 stood at 18 nM on TEAD1, 230 nM at TEAD3, 40 nM on TEAD4 and 640 nM at TEAD2.

Turning to `C=CC(=O)N(C)Cc1cc(-c2ccc(OC(F)(F)F)cc2)c2nccn2c1` [Compound 38, N-methyl-N-[[8-[4-(trifluoromethoxy)phenyl]imidazo[1,2-a]pyridin-6-yl]methyl]prop-2-enamide], the IC50 on TEAD1 came out at 20 nM; at TEAD3, 26 nM; at TEAD4, 6.8 nM; on TEAD2 it was 33 nM.

Regarding `C=CC(=O)NCc1cc(-c2ccc(OC(F)(F)F)cc2)c2ncn(C)c2c1[C@@H](C)O` (single isomer, unassigned) [Compound 138], the concentration for half-maximal inhibition (IC50) at TEAD1 came out at 60 nM; on TEAD3 it was 3600 nM; at TEAD4, 92 nM; at TEAD2, 10 nM.

Consider `C=C(F)C(=O)N1CC(c2cc(-c3ccc(OC(F)(F)F)cc3)c3ncn(C)c3c2)C1` [Compound 145, 2-Fluoro-1-(3-(1-methyl-4-(4-(trifluoromethoxy)phenyl)-1H-benzo[d]imidazol-6-yl)azetidin-1-yl)prop-2-en-1-one], for which the IC50 at TEAD1 came out at 6.9 nM; at TEAD3, 240 nM; on TEAD4, 12 nM; against TEAD2, 19 nM.

In the case of `C=CC(=O)N(C)Cc1cc(-c2ccc(OC(F)(F)F)cc2)c2nccn2c1CO` [Compound 36, N-[[5-(hydroxymethyl)-8-[4-(trifluoromethoxy)phenyl]imidazo[1,2-a]pyridin-6-yl]methyl]-N-methyl-prop-2-enamide], the IC50 on TEAD1 worked out at 44 nM; on TEAD3, 89 nM; on TEAD4, 37 nM; against TEAD2, 100 nM.

`C=CC(=O)NCc1cc(-c2ccc(OC(F)(F)F)cc2)c2ncoc2c1CO` [Compound 113, N-((7-(Hydroxymethyl)-4-(4-(trifluoromethoxy)phenyl)benzo[d]oxazol-6-yl)methyl)acrylamide]: the 50% inhibitory concentration (IC50) at TEAD1 is 24 nM; at TEAD3 it was 44 nM; on TEAD4 it was 31 nM; at TEAD2, 24 nM.

Take `C=CC(=O)NCc1cc(-c2ccc(OC(F)(F)F)cc2)c2ncn(C(F)F)c2c1CO` [Compound 39, N-[[3-(difluoromethyl)-4-(hydroxymethyl)-7-[4-(trifluoromethoxy)phenyl]benzimidazol-5-yl]methyl]prop-2-enamide]: the IC50 is 8 nM on TEAD1, 50.5 nM on TEAD3, 24.5 nM at TEAD4 and 9 nM on TEAD2.

As for `C=CC(=O)N(C)Cc1cc(-c2ccc(OC(F)(F)F)cc2)c2ncoc2c1[C@H](O)CO` (single isomer, unassigned) [Compound 107], the IC50 on TEAD1 turned out to be 100 nM; on TEAD3 it was 780 nM; on TEAD4, 36 nM; against TEAD2, 20 nM.

As for `C=CC(=O)NCc1cc(-c2ccc(OC(F)(F)F)cc2)c2ncoc2c1[C@@H](O)CO` (single isomer, unassigned) [Compound 106], the IC50 stood at 180 nM on TEAD1, 1000 nM on TEAD3, 180 nM on TEAD4 and 24 nM on TEAD2.

In the case of `C=CC(=O)NCc1cc(-c2ccc(OC(F)(F)F)cc2)c2nccn2c1` [Compound 37, N-[[8-[4-(trifluoromethoxy)phenyl]imidazo[1,2-a]pyridin-6-yl]methyl]prop-2-enamide], the IC50 at TEAD1 stood at 100 nM; at TEAD3 it was 230 nM; on TEAD4, 82 nM; on TEAD2 it was 960 nM.

Consider `C=CC(=O)NCc1cc(-c2ccc(OC(F)(F)F)cc2)c2ncsc2c1-c1noc(=O)[nH]1` [Compound 104, N-((7-(5-Oxo-4,5-dihydro-1,2,4-oxadiazol-3-yl)-4-(4-(trifluoromethoxy)phenyl)benzo[d]thiazol-6-yl)methyl)acrylamide], for which the IC50 is 95 nM on TEAD1, 27 nM at TEAD3, 40 nM at TEAD4 and 80 nM on TEAD2.

On to `C=CC(=O)NCc1cc(-c2ccc(OC(F)(F)F)cc2F)c2ncn(C)c2c1C#N` [Compound 143, N-((7-Cyano-4-(2-fluoro-4-(trifluoromethoxy)phenyl)-1-methyl-1H-benzo[d]imidazol-6-yl)methyl)acrylamide], for which the IC50 at TEAD1 amounted to 26 nM; at TEAD3, 69 nM; at TEAD4 it was 9.5 nM; against TEAD2, 22 nM.

For `C=CC(=O)NCc1nc2c(c(-c3ccc(OC(F)(F)F)cc3)n1)OCC2` [Compound 13, N-[[4-[4-(trifluoromethoxy)phenyl]-6,7-dihydrofuro[3,2-d]pyrimidin-2-yl]methyl]prop-2-enamide], the IC50 at TEAD1 is 86 nM; on TEAD3 it was 170 nM; on TEAD4 it was 35 nM; against TEAD2, 320 nM.

For `C=C(NC(=O)c1cc(-c2ccc(OC(F)(F)F)cc2)c2ncn(C)c2c1)C(=O)OC` [Compound 141, Methyl 2-(1-methyl-4-(4-(trifluoromethoxy)phenyl)-1H-benzo[d]imidazole-6-carboxamido)acrylate], the IC50 on TEAD1 amounted to 58 nM; on TEAD3, 1600 nM; on TEAD4, 15 nM; at TEAD2, 98 nM.

Consider `C=CC(=O)N(C)Cc1cc(-c2ccc(OC(F)(F)F)cc2)c2c(c1[C@@H](O)CO)CCO2` (single isomer, unassigned) [Compound 56], for which the 50% inhibitory concentration (IC50) worked out at 48 nM on TEAD1, 99 nM at TEAD3, 13 nM on TEAD4 and 35 nM against TEAD2.

In the case of `C=CC(=O)NCc1cc(-c2ccc(S(F)(F)(F)(F)F)cc2)c2c(c1CO)CCO2` [Compound 24, N-((4-(Hydroxymethyl)-7-(4-(pentafluoro-16-sulfaneyl)phenyl)-2,3-dihydrobenzofuran-5-yl)methyl)acrylamide], the concentration for half-maximal inhibition (IC50) on TEAD1 turned out to be 32 nM; at TEAD3, 39 nM; at TEAD4 it was 27 nM; at TEAD2, 120 nM.

`C=CC(=O)NCc1cc(Oc2ccc(C(F)(F)F)cc2)c2ncccc2c1[C@@H](O)CO` (single isomer, unassigned) [Compound 148]: the 50% inhibitory concentration (IC50) on TEAD1 stood at 36 nM; at TEAD3, 470 nM; on TEAD4, 540 nM; against TEAD2 it was 8.7 nM.

Turning to `C=CC(=O)NCc1nc(C23CC(C(C)C)(C2)C3)c2ncsc2n1` [Compound 102, N-((7-(3-Isopropylbicyclo[1.1.1]pentan-1-yl)thiazolo[5,4-d]pyrimidin-5-yl)methyl)acrylamide], the IC50 at TEAD1 is 120 nM; on TEAD3, 110 nM; at TEAD4, 23 nM; against TEAD2 it was 310 nM.

Take `C=CC(=O)NCc1cc(-c2ccc(OC(F)(F)F)cc2)c2ncn(C)c2c1[C@H](C)O` (single isomer, unassigned) [Compound 33]: the IC50 at TEAD1 is 140 nM; at TEAD3 it was 260 nM; at TEAD4 it was 79 nM; against TEAD2, 7.8 nM.

As for `C=CC(=O)NCc1cc(Oc2ccc(C(F)(F)F)cc2)c2ncccc2c1[C@H](O)CO` (single isomer, unassigned) [Compound 147], the half-inhibitory concentration (IC50) was found to be 110 nM on TEAD1, 610 nM on TEAD3, 890 nM on TEAD4 and 19 nM against TEAD2.

With `C=CC(=O)NCc1cc(-c2ccc(OC(F)(F)F)nc2)c2ncoc2c1CO` [Compound 114, N-((7-(Hydroxymethyl)-4-(6-(trifluoromethoxy)pyridin-3-yl)benzo[d]oxazol-6-yl)methyl)acrylamide], the IC50 at TEAD1 was found to be 480 nM; at TEAD3 it was 700 nM; at TEAD4, 740 nM; against TEAD2, 350 nM.

Take `C=CC(=O)NCc1cc(-c2ccc(OC(F)(F)F)cc2)c2c(c1-n1ccnc1)CCO2` [Compound 23, N-((4-(1H-Imidazol-1-yl)-7-(4-(trifluoromethoxy)phenyl)-2,3-dihydrobenzofuran-5-yl)methyl)acrylamide]: the half-inhibitory concentration (IC50) at TEAD1 was determined as 690 nM; on TEAD3, 3900 nM; on TEAD4, 160 nM; against TEAD2, 370 nM.

As to `C=CC(=O)NCc1nc(-c2ccc(OC(F)(F)F)cc2)c2ncn(C)c2c1CO` [Compound 73, N-((7-(hydroxymethyl)-1-methyl-4-(4-(trifluoromethoxy)phenyl)-1H-imidazo[4,5-c]pyridin-6-yl)methyl)acrylamide], the IC50 on TEAD1 stood at 58 nM; on TEAD3 it was 220 nM; on TEAD4 it was 39 nM; against TEAD2, 40 nM.
